From EP0440303A1 (PROBICOM RESEARCH B.V., priority 1990, dated 1991) come the findings set out here.

Where a SMILES comes first, the peptide text is derived from it.

One assay deals with T1, tripeptidase of L.lactis subsp. cremoris Wg2 (Lactococcus lactis subsp. cremoris, UniProt P0C2T7).
T1 sequence (P0C2T7 1-413): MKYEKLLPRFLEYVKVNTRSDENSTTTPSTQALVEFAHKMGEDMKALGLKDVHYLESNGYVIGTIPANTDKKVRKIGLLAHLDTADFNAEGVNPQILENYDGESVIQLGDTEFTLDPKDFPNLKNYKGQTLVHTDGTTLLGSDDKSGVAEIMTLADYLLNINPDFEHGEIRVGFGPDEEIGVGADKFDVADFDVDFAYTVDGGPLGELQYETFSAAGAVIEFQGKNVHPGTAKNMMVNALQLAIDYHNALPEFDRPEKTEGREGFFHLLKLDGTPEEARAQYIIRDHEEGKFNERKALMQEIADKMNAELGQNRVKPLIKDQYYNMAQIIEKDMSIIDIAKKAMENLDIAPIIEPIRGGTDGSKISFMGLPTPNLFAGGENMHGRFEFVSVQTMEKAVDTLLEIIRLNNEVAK
Kind of assay: Substrate specificity: peptide hydrolysis analysed by TLC. In kind it is biochemical. Also on record: key: + : hydrolysis; - : no hydrolysis. The conditions noted are these: peptide hydrolysis by the purified peptidase, 2 mM substrate in 20 mM HEPES (pH 7.0), 60 min at 30°C.
In the case of `NCC(=O)NCC(=O)NC(Cc1ccccc1)C(=O)O` (stereo not drawn) [Gly-Gly-Phe], the activity entry is reported as “+”.

In the case of `CC(C)C[C@H](N)C(=O)NCC(=O)NCC(=O)O` [Leu-Gly-Gly, leucyl-glycyl-glycine] (H-Leu-Gly-Gly-OH), the activity entry was “+”.

With `N=C(N)NCCCC(N)C(=O)NCC(=O)NCC(=O)O` (stereo not drawn) [Arg-Gly-Gly], the activity entry is listed as “+”.

Consider `CC(C)CC(NC(=O)CN)C(=O)NC(Cc1ccc(O)cc1)C(=O)O` (stereo not drawn) [Gly-Leu-Tyr] (H-Gly-Leu-Tyr-OH; configuration not given here), for which the activity entry is on record as “+”.

For the compound `CC(NC(=O)C(Cc1ccc(O)cc1)NC(=O)CN)C(=O)O` (stereo not drawn) [Gly-Tyr-Ala], the activity result is reported as “+”.

`NCC(=O)N1CCC[C@H]1C(=O)NCC(=O)NCC(=O)O` [Gly-Pro-Gly-Gly] (H-GPGG-OH): the activity entry was “-”.

With `CSCC[C@H](NC(=O)[C@H](Cc1ccccc1)NC(=O)CNC(=O)CNC(=O)[C@@H](N)Cc1ccc(O)cc1)C(=O)O` [Met-enkephalin], the activity entry is “-”.

`CSCC[C@H](NC(=O)[C@H](CC(C)C)NC(=O)CNC(=O)[C@H](Cc1ccccc1)NC(=O)[C@H](Cc1ccccc1)NC(=O)[C@H](CCC(N)=O)NC(=O)[C@H](CCC(N)=O)NC(=O)[C@@H]1CCCN1C(=O)[C@H](CCCCN)NC(=O)[C@@H]1CCCN1C(=O)[C@@H](N)CCCNC(=N)N)C(N)=O` [Substance P]: the activity entry is “-”.

`C[C@H](N)C(=O)N[C@@H](Cc1cnc[nH]1)C(=O)N[C@@H](C)C(=O)O` [Ala-His-Ala] (H-Ala-His-Ala-OH): the activity result was “+”.

On to `NC(Cc1ccccc1)C(=O)NCC(=O)NCC(=O)O` (stereo not drawn) [Phe-Gly-Gly], for which the activity entry is “+”.

With `CSCC[C@H](NC(=O)[C@@H](N)CC(C)C)C(=O)O` [Leu-Met] (H-Leu-Met-OH), the activity result is given as “-”.

`NC(Cc1cnc[nH]1)C(=O)NCC(=O)NCC(=O)O` (stereo not drawn) [His-Gly-Gly]: the activity entry is recorded as “+”.

With Neurotensin, the activity entry is listed as “-”.

With `C[C@H](N)C(=O)N[C@@H](C)C(=O)N[C@@H](C)C(=O)N[C@@H](C)C(=O)N[C@@H](C)C(=O)N[C@@H](C)C(=O)O` [Ala6], the activity result is “-”.

Turning to oxidized β-chain insulin, the activity entry is on record as “-”.

Turning to `O=C(O)CNC(=O)CNC(=O)C1CCCN1` (stereo not drawn) [Pro-Gly-Gly], the activity result is given as “+”.

Turning to `NCC(=O)NCC(=O)O` [Gly-Gly] (H-Gly-Gly-OH), the activity entry is reported as “-”.

Consider `C[C@H](N)C(=O)N1CCC[C@H]1C(=O)N[C@@H](C)C(=O)O` [Ala-Pro-Ala] (H-Ala-Pro-Ala-OH), for which the activity result is listed as “-”.

With `NCC(=O)NCC(=O)NCC(=O)O` [Gly-Gly-Gly] (H-Gly-Gly-Gly-OH), the activity entry is “+”.

For `NCCCC[C@H](NC(=O)[C@@H](N)CCC(=O)O)C(=O)O` [Glu-Lys] (H-Glu-Lys-OH), the activity entry is listed as “-”.

Regarding `C[C@H](NC(=O)[C@@H](N)CCC(=O)O)C(=O)O` [Glu-Ala] (H-Glu-Ala-OH), the activity entry is “-”.

Regarding `CC(C)CC(NC(=O)CNC(=O)CN)C(=O)O` (stereo not drawn), the activity result is listed as “+”.

In the case of `C[C@H](N)C(=O)N[C@@H](CC(=O)O)C(=O)O` [Ala-Asp] (H-Ala-Asp-OH), the activity entry is recorded as “-”.

`CC(C)C[C@H](NC(=O)[C@@H](N)Cc1ccccc1)C(=O)O` [Phe-Leu] (H-Phe-Leu-OH): the activity entry is recorded as “-”.

In the case of `NCCC[C@H](NC(=O)[C@H](CCCN)NC(=O)[C@@H](N)CCCN)C(=O)O` [Orn-Orn-Orn], the activity entry is reported as “+”.

Consider `CSCCC(N)C(=O)NCC(=O)NCC(=O)O` (stereo not drawn) [Met-Gly-Gly], for which the activity entry was “+”.

`CC(C)C[C@H](NC(=O)[C@@H](N)CC(C)C)C(=O)O` [Leu-Leu]: the activity result is on record as “-”.

For `C[C@H](N)C(=O)N[C@@H](C)C(=O)N[C@@H](C)C(=O)N[C@@H](C)C(=O)N[C@@H](C)C(=O)O` [Ala5], the activity result is listed as “-”.

With `CC(C)[C@H](N)C(=O)NCC(=O)NCC(=O)O` [Val-Gly-Gly] (H-Val-Gly-Gly-OH), the activity entry is “+”.

Regarding `CC(C)CC(NC(=O)C(Cc1ccccc1)NC(=O)CN)C(=O)O` (stereo not drawn) [Gly-Phe-Leu] (H-Gly-Phe-Leu-OH; configuration not given here), the activity result is given as “+”.

Take `C[C@H](N)C(=O)N[C@@H](C)C(=O)N[C@@H](C)C(=O)O` [Ala3]: the activity result was “+”.

In the case of `C[C@H](N)C(=O)N[C@@H](C)C(=O)N[C@@H](C)C(=O)N[C@@H](C)C(=O)O` [Ala4] (H-AAAA-OH), the activity result was “-”.

With `N[C@@H](CCC(=O)O)C(=O)N[C@@H](CCC(=O)O)C(=O)O` [Glu-Glu] (H-Glu-Glu-OH), the activity entry is on record as “-”.

With `CC(C)C[C@H](N)C(=O)NCC(=O)O` [Leu-Gly] (H-Leu-Gly-OH), the activity result is recorded as “-”.

As to `CC(NC(=O)C1CCCN1C(=O)CN)C(=O)O` (stereo not drawn) [Gly-Pro-Ala], the activity entry was “-”.

`NCC(=O)NC(Cc1cnc[nH]1)C(=O)NCC(=O)O` (stereo not drawn) [Gly-His-Gly]: the activity result was “+”.

Consider `N[C@@H](Cc1c[nH]c2ccccc12)C(=O)NCC(=O)NCC(=O)O` [Trp-Gly-Gly] (H-Trp-Gly-Gly-OH), for which the activity result is reported as “+”.

In the case of `CC(NC(=O)C(CO)NC(=O)CN)C(=O)O` (stereo not drawn) [Gly-Ser-Ala], the activity result is listed as “+”.

On to `CC(C)[C@H](NC(=O)[C@@H](N)CCC(=O)O)C(=O)N[C@@H](Cc1ccccc1)C(=O)O` [Glu-Val-Phe] (H-Glu-Val-Phe-OH), for which the activity result was “+”.

Consider `CC(C)CC(NC(=O)C(NC(=O)C(C)N)C(C)C)C(=O)O` (stereo not drawn) [Ala-Val-Leu], for which the activity entry is “+”.

For `CC(C)C[C@H](NC(=O)[C@H](CC(C)C)NC(=O)[C@@H](N)CC(C)C)C(=O)O` [Leu-Leu-Leu, leucyl-leucyl-leucine] (H-Leu-Leu-Leu-OH), the activity entry is reported as “+”.

As to `CC(C)[C@H](NC(=O)[C@@H](N)CCC(=O)O)C(=O)O` [Glu-Val] (H-Glu-Val-OH), the activity result is on record as “-”.

Regarding `NC(CO)C(=O)NCC(=O)NCC(=O)O` (stereo not drawn) [Ser-Gly-Gly], the activity entry was “+”.

Consider `C[C@H](N)C(=O)N[C@@H](C)C(=O)O` [Ala2] (H-Ala-Ala-OH), for which the activity result is “-”.

Regarding “Bradykinin (RPPGFSPFR; Bradykinin; UniProt P01042 381-389, looked up)”, the activity entry is reported as “-”.

For the compound `N[C@@H](Cc1ccc(O)cc1)C(=O)NCC(=O)NCC(=O)O` [Tyr-Gly-Gly] (H-Tyr-Gly-Gly-OH), the activity entry is “+”.

Consider `C[C@H](N)C(=O)N1CCC[C@H]1C(=O)N[C@@H](Cc1ccccc1)C(=O)O` [Ala-Pro-Phe] (H-Ala-Pro-Phe-OH), for which the activity result is “-”.

Another assay has as its target T1, tripeptidase of L.lactis subsp. cremoris Wg2. Kind of assay: Effects of chemical agents on the peptidase activity (leu3 hydrolysis).
Conditions: not given
In kind it is biochemical.
As for `CCN1C(=O)C=CC1=O` [NEM, N-ethylmaleimide], the “effect on the enzyme activity (in words)” value is “slightly inhibited the activity”.

`O=S(=O)(O)c1cc[c]([Hg][Cl])cc1` [pCMBS, p-chloromercuribenzenesulphonate]: the “effect on the enzyme (summary in words)” value was “not inhibited”.

`COC(CNC(=O)c1ccccc1OCC(=O)O)[CH2][Hg][OH]` (stereo not drawn) [Mersalyl, o-(3-hydroxymercuri-2-methoxypropyl)carbamylphenoxyacetate]: the “effect on the enzyme (summary in words)” value was “not inhibited”.

For `O=C(O)c1cc[c]([Hg][Cl])cc1` [pCMB, p-chloromercuribenzoate], the “effect on the enzyme (summary in words)” value was “not inhibited”.

The assay is the same for the next values; noted with them: NEM 0.5 mM; cystine 0.05 mM; phenylarsine oxide 0.1 mM; DTT 1 mM; β-mercaptoethanol 0.4 mM; ferricyanide 3 mM after the reducing agents.
Turning to `OCCS` [β-Mercaptoethanol, β-mercaptoethanol], the “effect on the enzyme activity (in words)” value is “strong inhibition”.

Take `O[C@H](CS)[C@H](O)CS` (racemic) [DTT, dithiothreitol]: the “effect on the enzyme activity (in words)” value is “strong inhibition”.

As for `N[C@@H](CSSC[C@H](N)C(=O)O)C(=O)O` [Cystine, cystine], the “effect on the enzyme activity (in words)” value was “had no effect on the enzyme activity”.

Still in this assay, the particulars now being: pH 7, read-out: relative activity (%).
As for `CCN1C(=O)C=CC1=O` [NEM, N-ethylmaleimide], the activity at 500 µM came out at 76%.

The same assay, now with this note: pH 7; read-out: relative activity (%).
As to `OCCS` [β-Mercaptoethanol, β-mercaptoethanol], the activity at 400 µM was determined as 14%.

The assay is the same for the next values; noted with them: reagent 0.05 mM; 0.84 μg enzyme/ml, 10 min at pH 7 (20°C) before leu3 was added; none = 100; read-out: relative activity (%).
With `N[C@@H](CSSC[C@H](N)C(=O)O)C(=O)O` [Cystine, cystine], the activity at 50 µM worked out at 118%.

Staying with this assay, now noted: reagent 1 mM; 0.84 μg enzyme/ml, 10 min at pH 7 (20°C) before leu3 was added; none = 100; read-out: relative activity (%).
With `O[C@H](CS)[C@H](O)CS` (racemic) [DTT, dithiothreitol], the activity at 1000 µM came to 4%.

The same assay, now with this note: summary statement, concentration not given.
For `OCCS` [β-Mercaptoethanol, β-mercaptoethanol], the “effect on the enzyme (summary in words)” value is on record as “strong inhibition”.

Take `O[C@H](CS)[C@H](O)CS` (racemic) [DTT, dithiothreitol]: the “effect on the enzyme (summary in words)” value is “strong inhibition”.
